US20040266623A1, “SYNERGISTIC QUINCLORAC HERBICIDAL COMPOSITIONS” (priority 2003, published 2004)

Key:
Test in all cases: Greenhouse pot test, postemergent spray, visual control rating converted to percent control
Format in all cases: in vivo
white clover = tested on: white clover
Procedure: (§1) Pots of crabgrass, dandelion, white clover, and plantain grown in greenhouse soiless growth media were sprayed with a greenhouse pot sprayer at 43.46 gallons of spray solution/acre and allowed to stand in the greenhouse. Visual observation of the effects made by the herbicidal compositions on the plants in the test pots was recorded for control of crabgrass, dandelion, clover and plantain at 24 hours after treatment (HAT), 48 hours after treatment (HAT), 72 hours after treatment (HAT), 7 days after treatment (DAT), 14 days after treatment (DAT) and 21 days after treatment (DAT). A control rating scale of 1 to 9 was used to record the visual observation of the effect of the herbicidal composition on the plants over the time period of the tests. 1=no control, and 9=death of plant, with intervening numbers representing successive degrees of observed effectiveness of the herbicidal composition over time. The 1-9 control rating scale was converted to percent control in the test data charts that follow.
(§2) The test protocol of S. R. Colby as set out in his article entitled “Calculating Synergistic and Antagonistic Responses of Herbicide Compositions,” received for publication Apr. 11, 1966, Contribution No. 3796 and Scientific Article No. 1271 of the Maryland Agricultural Experiment Station, Department pf Agronomy, University of Maryland was followed to evaluate the synergistic properties of the combination of quinclorac plus a herbicidal protox inhibitor, and a combination of quinclorac, plus a herbicidal protox inhibitor plus a herbicidal auxinic agent as compared with the individual herbicides, using Colby's formulas E=X+Y−XY/100 for a two herbicide combination, where E=the expected percent of inhibition of growth by herbicides, X=the percent inhibition of growth by herbicide A at p lb/A, and Y=the percent inhibition of growth by herbicide B at q lb/A, for a given combination of two herbicides. Colby's formula E=X+Y+Z−(XY+XZ+YZ)/100+XYZ/10,000, was used for the three-way herbicide combination evaluation, where E, X and Y are the same as in the two herbicide formula and Z=the percent inhibition of growth by the third herbicide.

dandelion = tested on: dandelion
Procedure: as §1, §2

crabgrass = tested on: crabgrass
Procedure: as §1, §2

plantain = settings: for Control (1-9) Plantain: scale 1=no control, 9=death of plant
Procedure: as §1, §2

[1] = Test 4, 24 HAT, scale 1=no control, 9=death of plant
[2] = Test 4, 72 HAT, scale 1=no control, 9=death of plant

## CC(C)CCCCCOC(=O)COc1ccc(Cl)cc1Cl [2,4-D IOE]
White clover; Test 1, 7 DAT, 0.70 lbs/A
  % Control Clover: 44.4%
  Control (1-9) Clover: 4
White clover; Test 1, 14 DAT, 0.70 lbs/A
  % Control Clover: 88.9%
  Control (1-9) Clover: 8
White clover; Test 1, 24 HAT, 0.70 lbs/A
  % Control Clover: 11.1%
  Control (1-9) Clover: 1
White clover; Test 1, 48 HAT, 0.70 lbs/A
  % Control Clover: 44.4%
  Control (1-9) Clover: 4
White clover; Test 2, 7 DAT, 0.70 lbs/A
  % Control Clover: 66.7%
  Control (1-9) Clover: 6
White clover; Test 2, 14 DAT, 0.70 lbs/A
  % Control Clover: 100.0%
  Control (1-9) Clover: 9
White clover; Test 2, 24 HAT, 0.70 lbs/A
  % Control Clover: 33.3%
  Control (1-9) Clover: 3
White clover; Test 2, 72 HAT, 0.70 lbs/A
  % Control Clover: 66.7%
  Control (1-9) Clover: 6
dandelion; Test 1, 7 DAT, 0.70 lbs/A
  % Control Dandelion: 66.7%
  Control (1-9) Dandelion: 6
dandelion; Test 1, 14 DAT, 0.70 lbs/A
  % Control Dandelion: 100.0%
  Control (1-9) Dandelion: 9
dandelion; Test 1, 24 HAT, 0.70 lbs/A
  % Control Dandelion: 33.3%
  Control (1-9) Dandelion: 3
dandelion; Test 1, 48 HAT, 0.70 lbs/A
  % Control Dandelion: 44.4%
  Control (1-9) Dandelion: 4
dandelion; Test 2, 7 DAT, 0.70 lbs/A
  % Control Dandelion: 88.9%
  Control (1-9) Dandelion: 8
dandelion; Test 2, 14 DAT, 0.70 lbs/A
  % Control Dandelion: 100.0%
  Control (1-9) Dandelion: 9
dandelion; Test 2, 24 HAT, 0.70 lbs/A
  % Control Dandelion: 33.3%
  Control (1-9) Dandelion: 3
dandelion; Test 2, 72 HAT, 0.70 lbs/A
  % Control Dandelion: 66.7%
  Control (1-9) Dandelion: 6
crabgrass; Test 1, 7 DAT, 0.70 lbs/A
  % Control Crabgrass: 44.4%
  Control (1-9) Crabgrass: 4
crabgrass; Test 1, 14 DAT, 0.70 lbs/A
  % Control Crabgrass: 33.3%
  Control (1-9) Crabgrass: 3
crabgrass; Test 1, 24 HAT, 0.70 lbs/A
  % Control Crabgrass: 22.2%
  Control (1-9) Crabgrass: 2
crabgrass; Test 1, 48 HAT, 0.70 lbs/A
  % Control Crabgrass: 44.4%
  Control (1-9) Crabgrass: 4
crabgrass; Test 2, 7 DAT, 0.70 lbs/A
  % Control Crabgrass: 22.2%
  Control (1-9) Crabgrass: 2
crabgrass; Test 2, 14 DAT, 0.70 lbs/A
  % Control Crabgrass: 22.2%
  Control (1-9) Crabgrass: 2
crabgrass; Test 2, 24 HAT, 0.70 lbs/A
  % Control Crabgrass: 33.3%
  Control (1-9) Crabgrass: 3
crabgrass; Test 2, 72 HAT, 0.70 lbs/A
  % Control Crabgrass: 66.7%
  Control (1-9) Crabgrass: 6

## Cc1nn(-c2cc(CC(Cl)C(=O)O)c(Cl)cc2F)c(=O)n1C(F)F (stereo not shown) [Carfentrazone @ 0.01 lbs/A]
White clover; Test 4, 24 HAT
  % Control Clover: 22.2%
White clover; [1]
  Control (1-9) Clover: 2
White clover; Test 4, 72 HAT
  % Control Clover: 44.4%
White clover; [2]
  Control (1-9) Clover: 4
dandelion; Test 4, 24 HAT
  % Control Dandelion: 22.2%
dandelion; [1]
  Control (1-9) Dandelion: 2
dandelion; Test 4, 72 HAT
  % Control Dandelion: 33.3%
dandelion; [2]
  Control (1-9) Dandelion: 3
plantain; Test 4, 24 HAT
  % Control Plantain: 33.3%
  Control (1-9) Plantain: 3
plantain; Test 4, 72 HAT
  % Control Plantain: 88.9%
  Control (1-9) Plantain: 8
crabgrass; Test 4, 24 HAT
  % Control Crabgrass: 11.1%
crabgrass; [1]
  Control (1-9) Crabgrass: 1
crabgrass; Test 4, 72 HAT
  % Control Crabgrass: 22.2%
crabgrass; [2]
  Control (1-9) Crabgrass: 2
